Measured values as given in patent publication US20240327433A1, “PYRIMIDOPYRAN COMPOUND” (Medshine Discovery Inc., priority 2021, published 2024).
pIC50: −log10 of the molar value. Counter-ions that a name gives are not always drawn.

Columns and labels:
[1] = PPB assay: recovery rate in the dialysis device (five species plasma); format: in vitro ADME; conditions: CD-1 (mouse), Sprague-Dawley (rat), Beagle (dog), cynomolgus monkey, human
Description: (§1) The protein binding rates of the compound in the plasma of CD-1 mouse, Sprague-Dawley rat, Beagle dog, cynomolgus monkey and human were determined by equilibrium dialysis method. The plasmas of the above-mentioned five species were formulated to plasma samples with a compound concentration of 2 μM. The plasma samples were placed in a 96-well rapid equilibrium dialysis device, and dialyzed against phosphate buffered saline at 37±1° C. for 4 h. In this assay, warfarin was used as a control compound. The concentrations of analytes in plasma and dialysis buffer were determined by LC-MS/MS mothed.

[2] = test system: p-ERK in GP2D cells; assay: Assay of p-ERK inhibition in GP2D cells (HTRF); format: cell-based; conditions: 1 hour incubation
Description: The cell plate was inoculated in a carbon dioxide incubator at 37° C. overnight; • 2) 2 μL of the compound was weighed and added to 78 μL of the cell medium. After the mixture was mixed thoroughly, 20 μL of the solution of compound was weighed and added to the corresponding well of the cell plate. The cell plate was placed back to the carbon dioxide incubator and incubated for another 1 hour; • 3) After completion of the incubation, the cell supernatant was discarded. 50 μL of 1× cell lysate was added to each well. The mixture was incubated with shaking at room temperature for 30 minutes; • 4) Phospho-ERK1/2 Eu Cryptate antibody and Phospho-ERK1/2 d2 antibody were diluted 20-fold with detection buffer; • 5) 16 μL of cell lysate supernatant was weighed and added into each well of a new 384 white microwell plate, and then 2 μL of the diluted solution of Phospho-ERK1/2 Eu Cryptate antibody and 2 μL of the diluted solution of Phospho-ERK1/2 d2 antibody dilution were added. The mixture was incubated at room temperature for at least 4 hours; • 6) After completion of the incubation, HTRF was read with multi-label analyzer: excitation: 320 nm, emission: 615 nm, 665 nm; • 7). IC50 of the compounds to be assayed was calculated.

[3] = Plasma protein binding (PPB), equilibrium dialysis, human plasma; format: in vitro ADME; conditions: 2 μM, unbound rate
Description: (§2) The protein binding rates of the compound in the plasma of CD-1 mouse, Sprague-Dawley rat, Beagle dog, cynomolgus monkey and human were determined by equilibrium dialysis method.
as §1, with “The” for “The protein binding rates of the compound in the plasma of CD-1 mouse, Sprague-Dawley rat, Beagle dog, cynomolgus monkey and human were determined by equilibrium dialysis method. The”

[4] = test system: p-ERK in AGS cells; assay: Assay of p-ERK inhibition in AGS cells (HTRF); format: cell-based; conditions: Homo sapiens, 3 hours incubation
Description: • 1) AGS cells were inoculated in a transparent 96-well cell culture plate, and each well contained […] of cell suspension and 10000 cells. The cell plate was inoculated in a carbon dioxide incubator at 37° C. overnight; • 2) After completion of the incubation, the cell supernatant was discarded. 80 μL of medium containing 0.02% serum was added to each well. The cell plate was incubated in a carbon dioxide incubator at 37° C. overnight; • 3) 2 μL of the compound was weighed and added to 78 μL of the cell medium. After the mixture was mixed thoroughly, 20 μL of the solution of compound was weighed and added to the corresponding well of the cell plate. The cell plate was placed back to the carbon dioxide incubator and incubated for another 3 hours; • 4) After completion of the incubation, the cell supernatant was discarded. 50 μL of 1× cell lysate was added to each well. […] The mixture was incubated at room temperature for at least 4 hours; • 7) After completion of the incubation, HTRF was read with multi-label analyzer: excitation: 320 nm, emission: 615 nm, 665 nm; • 8). IC50 of the compound to be assayed was calculated.

[5] = Plasma protein binding (PPB), equilibrium dialysis, Sprague-Dawley rat plasma; format: in vitro ADME; conditions: 2 μM, unbound rate
Description: as §2
as §1, with “The” for “The protein binding rates of the compound in the plasma of CD-1 mouse, Sprague-Dawley rat, Beagle dog, cynomolgus monkey and human were determined by equilibrium dialysis method. The”

[6] = Pharmacokinetic study of oral and intravenously injected compounds in CD-1 mouse; format: in vivo
Description: To assay the pharmacokinetics of oral and intravenously injected compounds in CD-1 mouse. The assay compound was mixed with 5% DMSO+95% (10% HP-β-CD) aqueous solution. The mixture was vortexed and sonicated to prepare a clear solution of 0.5 mg/mL (intravenous) or a clear solution of 3 mg/mL (oral). The clear solution was filtered by a microporous membrane for use. […] Whole blood was collected for a certain period of time, and prepared to obtain plasma. Drug concentration was analyzed by LC-MS/MS method, and pharmacokinetic parameters were calculated by Phoenix WinNonlin software (Pharsight, USA).

[7] = male, CD-1, plasma, intravenous (IV), about 2 mg/kg
[8] = male, CD-1, plasma, oral (PO), about 30 mg/kg

Compound: Cc1cc(N)c(F)c(C2Cc3nc(OC[C@@]45CCCN4C[C@H](F)C5)nc(N4CC5CCC(C4)N5)c3CO2)c1C(F)(F)F (stereo partly shown) [Compound 1 hydrochloride]
- recovery at 4 h, 2 μM [1]: 82.4 to 110%
- pIC50 [2]: 9.10
- Unbound PPB H [3]: 7.0%
- pIC50 [4]: 7.35
- Unbound PPB R [5]: 3.0%
- AUC(0-t) [6, 7]: 0.353 µM·h
- C0 [6, 7]: 1400 nM
- Vd [6, 7]: 148 L/kg
- clearance [6, 7]: 106 mL/min/kg
- half-life [6, 7]: 23.1 h
- AUC(0-inf) [6, 8]: 1.35 µM·h
- Cmax [6, 8]: 228 nM
- F ([6]; oral (PO), about 30 mg/kg, oral bioavailability): 25.5%
